The values below are quoted from earlier work in patent US7884104B2, “Aminopiperidines as dipeptidyl peptidase-IV inhibitors for the treatment or prevention of diabetes” (Merck Sharp & Dohme Corp., priority 2004, dated 2011).

One data set has as its system cardiac allograft. Particulars: rats; doubled from day 7 to day 14.
In the next data set the test system is hematopoiesis. Particulars: mouse, cyclophosphamide-induced neutropenia.
The next data set has as its target T1, DPP-IV (Homo sapiens, UniProt P27487).
T1 construct: GRF is rapidly degraded in plasma to GRF[344]; host or cells: plasma (endogenous enzyme activity)

T1 sequence (P27487 39-766 limits assumed, species assumed): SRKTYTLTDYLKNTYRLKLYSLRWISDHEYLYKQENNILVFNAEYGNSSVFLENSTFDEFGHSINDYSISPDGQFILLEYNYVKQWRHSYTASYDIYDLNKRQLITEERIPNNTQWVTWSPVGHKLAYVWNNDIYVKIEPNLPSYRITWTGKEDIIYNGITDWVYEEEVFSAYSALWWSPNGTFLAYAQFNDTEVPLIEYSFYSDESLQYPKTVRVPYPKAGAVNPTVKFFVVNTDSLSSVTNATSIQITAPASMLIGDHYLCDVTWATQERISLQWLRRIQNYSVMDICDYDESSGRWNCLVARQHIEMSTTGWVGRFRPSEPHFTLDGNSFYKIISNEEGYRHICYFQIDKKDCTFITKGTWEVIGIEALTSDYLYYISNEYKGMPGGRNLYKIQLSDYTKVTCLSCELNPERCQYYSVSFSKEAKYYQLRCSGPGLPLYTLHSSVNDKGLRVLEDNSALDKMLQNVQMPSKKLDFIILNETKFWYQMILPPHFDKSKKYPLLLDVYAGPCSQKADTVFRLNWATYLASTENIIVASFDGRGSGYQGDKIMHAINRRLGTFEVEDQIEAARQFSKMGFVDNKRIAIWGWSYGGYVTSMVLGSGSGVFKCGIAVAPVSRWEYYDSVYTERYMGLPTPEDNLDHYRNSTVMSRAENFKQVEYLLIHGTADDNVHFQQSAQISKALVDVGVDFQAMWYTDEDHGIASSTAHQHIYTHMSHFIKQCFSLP

Take `CC(C)N1CCC(c2ccccc2)(c2ccccc2)CC1` [Prodipine, Pro-Pro-diphenyl-phosphonate]: in the data set with cardiac allograft, the cardiac allograft survival is 14 day. On to `CC(C)[C@H](N)C(=O)N1CCC[C@H]1B(O)O` [Val-Boro-Pro], for which, in the data set on hematopoiesis, the effect on hematopoiesis entry is recorded as “stimulated hematopoiesis”.

Take diprotin A: the “effect on degradation of GRF in plasma” value at DPP-IV is given as “prevented”.
